The melting point is the temperature, or range, at which the solid turns liquid. For `CN1CC[C@@H](c2c(O)cc(O)c3c(=O)cc(-c4cc(O)ccc4Cl)oc23)[C@@H]1CO`, the melting point lay in the range of 220 to 221 °C.
For the compound `Cc1cccn2c(=O)c(C(=O)NC3CCCC3)cnc12`, the melting point was in the range of 170 to 171 °C.
For `COc1cc(O)nc2cc(-c3cc(C)c(O)c(C)c3)[nH]c(=O)c12` the value was > 330 °C; for `CC[C@H](CS[C@@H](CCc1ccccc1C(C)(C)O)c1cccc(C=Cc2ccc3ccc(Cl)cc3n2)c1)C(=O)O`, 115 to 117 °C.
The same measure for `NC(=O)c1ccc(Nc2nc(N)nc(Cc3c(Cl)ccc4[nH]ccc34)n2)cc1`: 204 to 205 °C; for `Cc1ccccc1OCc1ccccc1[N+](=O)[O-]`: 83 °C.
As for `O=C(O)c1cnc2sccc2c1Cl`, the melting point was in the range of 172 to 174 °C.
The compound `C[C@H]1C[C@@H](NC(=O)C(F)(F)F)CC(O)O1` (stereo partly drawn) came in with a melting point of 159 to 160 °C.
The compound `CC(C)NCC(O)COc1cccnc1` (stereo not drawn) yielded a melting point of 84 to 87 °C.
With `Cc1cccc(N2CCN(CCc3c(C)nc4ccc(Cl)cn4c3=O)CC2)c1`, the melting point lay within 119 to 120 °C.
`O=CNNc1ccc(NC(=S)Nc2ccc(NNC=O)cc2)cc1`: the melting point was 212 to 214 °C.
Turning to `CC(C)=CCCC(C)=CCOc1ccc(C(=O)NCCSc2ccc(C(F)(F)F)cn2)cc1`, the melting point is 96.7 to 97.5 °C.
Regarding `CN(C)c1ccccc1Sc1nc2ccccc2[nH]1`, the melting point is 148 to 149 °C.
For `CCOC(=O)c1cnn(-c2ccccc2)c1NC(=O)Nc1ccccc1` the value was 184 to 185 °C; for `COc1ccc(-c2sc3c(c2OC(C)=O)CCCc2ccccc2-3)cc1`, 154 °C.
Compound `Cc1cc(C)c2cc(C3CCNC(C)C3)sc2c1` (stereo not drawn) yielded a melting point of 52 to 57 °C.
In turn, `Cn1cnc2c1c(=O)n(CCCN1CCN(c3ccc(Cl)nn3)CC1)c(=O)n2C` had a melting point of 285 to 287 °C.
As to `COC(=O)N1C(=O)c2ccccc2C1=O`, the melting point was 184 °C.
For `CCCOCCOc1ccc(-c2ccc3c(c2)C=C(C(=O)O)CCS3(=O)=O)cc1` the value was 176 to 179 °C.
For `Cc1cc(-n2ccc(OCCc3ccccc3)cc2=O)sc1C(=O)NCc1ccccc1` the value was 159 to 160 °C; for `CC1(C)CC(CCCCNc2nc(Cl)nc(NCCCCC3CC(C)(C)NC(C)(C)C3)n2)CC(C)(C)N1`, 40 to 42 °C.
The same measure for `COc1ccc(-c2nc(C(N)=O)oc2-c2ccc(OC)cc2)cc1`: 133 to 135 °C.
Take `O=CN(O)C(CCCO)CS(=O)(=O)c1ccc(-c2ccc(C(F)(F)F)cc2)cc1` (stereo not drawn): the melting point lay within 139 to 140 °C.
`O=C(O)CS(=O)CC(=O)O` registered a melting point of 118 to 119 °C.
For `c1ccc(Nc2ncnc3[nH]nc(Nc4ccccc4)c23)cc1` the value was 263 to 264 °C.
Compound `O=C(N[C@@H](CO)C(=O)NCCCCOC1CCCCC1)c1ccc(C(=O)c2cccnc2)cc1` displayed a melting point of 55 to 61 °C.
`COc1ccc(-c2cncc(OC3SCC(O)C(O)C3O)c2)c(OC)c1` (stereo not drawn): the melting point stood at 184 °C.
For the compound `N#Cc1cc(N)ccc1N1CCC(N2CCCCC2)CC1`, the melting point lay in the range of 110 to 112 °C.
On to `CN1C2CCC1CC(=NO)C2`, for which the melting point fell in the range of 140 to 142 °C.
For `Cc1cccnc1N[C@H]1CC[C@H](C2CCCCC2)CC1` the value was 65 to 67 °C; for `CC(C)(C)OC(=O)N(Cc1ccc(C2CCCCC2)cc1)c1nc(Oc2ccc(F)cc2)c2ncn(CC(=O)O)c2n1`, 119 to 133 °C.
Compound `CCOC(=O)CC(=O)c1cc(F)c(O)nc1Nc1ccc(F)cc1F` showed a melting point of 161 to 162 °C.
As to `CCCCCCCCCC(=O)c1cc(OC)c(Cl)cc1OC`, the melting point was in the range of 53 to 54 °C.
As to `O=Cc1cc(O)ccc1-c1cccc(C(F)(F)F)c1`, the melting point is 100 to 102 °C.
`COc1ccc(N2CCN(CCC3OCCc4cc(C#N)ccc43)CC2)cc1` (stereo not drawn) yielded a melting point of 86 to 88 °C.
The same measure for `CNc1nc(Nc2ccc(Cl)c(Cl)c2)ncc1N1C(=O)CNC1=O`: 301 °C; for `COc1cccc(NC(=O)N[C@H]2C[C@H](C(=O)O)Nc3cc(Cl)cc(Cl)c32)c1` (relative stereo): 181 to 183 °C; for `Cc1nc2cc(-c3nn(C(C)c4oc5ccccc5c(=O)c4-c4cccc(F)c4)c4ncnc(N)c34)ccc2[nH]1` (stereo not drawn): 154 to 156 °C.
For `COC(=O)C1=C(C)NC(C)=C([N+](=O)[O-])C1c1cccc2ncc(-c3ccccc3)cc12` (stereo not drawn) the value was 262 °C; for `Cc1nccn1-c1ccc(OCCO)cc1`, 125 to 127 °C.
Compound `Oc1ccc2oc(-c3ccc(F)cc3)nc2c1` returned a melting point of 166 to 168 °C.
For `Cc1cc(-c2ccc(Cl)cc2)cnc1N=CN(C)C` the value was 99 °C; for `CN1CCC(c2c[nH]c3ccc(C(=O)c4ccc(Cl)cc4)cc23)CC1`, 133 °C; for `Cc1cc(CC(=O)O)cc2c1[nH]c1ccccc12`, 177 to 179 °C.
As for `CC[C@@H](c1ccccc1)N(Cc1ccc(C(=O)OC)cc1OC)S(=O)(=O)c1ccc(Cl)cc1`, the melting point is 108 to 110 °C.
Turning to `CCCCCCCCCCCCC(O)CN(CCC#N)CCCCCCCCCCCCN(CCC#N)CC(O)CCCCCCCCCCCC` (stereo not drawn), the melting point lay within 37 to 38 °C.
`Cc1ccc(N2C(=O)C(O)=C(C(=O)c3ccc(C(C)C)cc3)C2c2ccc(O)cc2)nn1` (stereo not drawn) showed a melting point of 222 to 224 °C.
In turn, `COC(=O)C(Cc1ccc(OCCn2ccc3cccnc32)cc1)C(=O)O` (stereo not drawn) gave a melting point of 120 to 122 °C.
For the compound `CCc1ccc2ccc(N)nc2n1`, the melting point is 170 to 172 °C.
Compound `CCCNC(=O)c1c(OCc2ccc(-c3ccccc3-c3nnn[nH]3)cc2)cc(C)nc1C` had a melting point of 196 to 198 °C.
With `COc1ccc(C2C(C(=O)c3ccc(N4CCOCC4)cc3)=C(O)C(=O)N2c2ccc(C)nn2)cc1` (stereo not drawn), the melting point was 232 °C.
For the compound `O=C(NC1CCCCC1)c1ccn2nc(-c3ccccc3)c(-c3cccc(Cl)c3)c2n1`, the melting point fell in the range of 160 to 161 °C.
The compound `C=CCNC(=O)c1ccc(-c2ccc3nnn(Cc4ccc5ncccc5c4)c3n2)cc1F` had a melting point of 162 to 164 °C.
On to `COc1cc(F)ccc1-c1ccc(S(=O)(=O)N2c3ccccc3CC2C(=O)NCCOc2ccc(CC(=O)O)cc2)cc1` (stereo not drawn), for which the melting point was 102 to 110 °C.
Compound `C=C1c2c(C)cccc2NC(=O)N1CC(=O)OCC` had a melting point of 151 to 154 °C.
For `COc1cccc2c1Oc1cc(Cl)ccc1C2` the value was 106 to 108 °C; for `CCCCNc1cc(C(=O)O)cc(S(C)=O)c1Cl` (stereo not drawn), 158 °C.
The same measure for `O=C1NCc2ccc(OCCCCN3CCN(c4cccc(Cl)c4Cl)CC3)nc2N1`: 166 to 167 °C.
Take `COc1cc(OC)nc(NC(=O)NS(=O)(=O)c2ccccc2CCCl)n1`: the melting point is 169 to 171 °C.
For `CN(C)C=C(C#N)C(=O)Nc1ccccc1-n1cccc1` the value was 167 to 169 °C; for `C[C@H](CC(=O)[C@H](Cc1ccccc1)OC(=O)c1ccccc1)C(=O)N1CCC[C@H]1C(=O)O`, 130 to 134 °C; for `COC(=O)c1ccc(-c2nc(-c3ccc(OC(F)F)cc3)cs2)cc1`, 146 to 148 °C.
On to `COc1cccc(CNc2nccc(-c3cc(N4CCN(CCCN5CCC5)CC4)c4cc(OC)ccc4c3)n2)c1`, for which the melting point lay in the range of 122 to 130 °C.
`CCCNC(=O)C(O)C1c2ccccc2C(=O)N1c1ccc2ccc(Br)nc2n1` (stereo not drawn) yielded a melting point of 174 °C.
Regarding `CN(C)C(=O)N(C)C(=O)Nc1ccc(Cl)cc1`, the melting point was 94.5 to 95 °C.
For `Cn1cc(C2=C(c3cn(CCCNc4ncccn4)c4ccccc34)C(=O)NC2=O)c2ccccc21` the value was 214 to 215 °C; for `COC(=S)c1ccnc(C)n1`, 68 °C; for `O=c1[nH]c(=O)n(C2CC2)c2c(OC(F)F)c(F)ccc12`, 215 to 221 °C.
For `CCCCNC1CC(C)(C)N(c2nc(N3CCOCC3)nc(N3CCOCC3)n2)C(C)(C)C1` the value was 82 to 87 °C.
For the compound `CCCCCCC1C(=O)NC(C(=O)SC2CCCCC2)(C(O)C2C=CCCC2)C1(C)O` (stereo not drawn), the melting point was 85 °C.
In the case of `CC(C)COC(=O)N[C@@H](Cc1ccccc1)C(=O)CSCc1ccco1`, the melting point lay in the range of 58 to 59 °C.
Compound `CCN(CC)c1cc(C)nc(Oc2c(C)cc(C)cc2C)c1C` had a melting point of 180 to 181 °C.
In the case of `Cc1ccc(-c2nc3c(C)cccc3c(=O)[nH]2)c(Cl)c1`, the melting point is 234 °C.
As for `Nc1[nH]nc(-c2ccc(Cl)cc2)c1-c1ccncc1`, the melting point was > 300 °C.
Turning to `Cn1cc(C2=CCN(CCCN3c4cccc5cccc(c45)S3(=O)=O)CC2)c2ccccc21`, the melting point turned out to be 161 °C.
`O=c1c2ccccc2[nH]c2c(OCCCCBr)cccc12` showed a melting point of 180 to 181 °C.
For `N#Cc1cc(-c2c(-c3ccccc3)nn3ccccc23)cn(CCC(=O)O)c1=O` the value was 196 to 200 °C.
The same measure for `CCOC(=O)Cc1c(CC)nn(-c2ccccc2)c1CC`: 129 to 130 °C; for `CCOC1=NS(=O)(=O)N=C1c1ccccc1`: 204 to 206 °C.
`CCn1ncc2c1ncc1c(OCCN(C)C)nc3ncnn3c12` came in with a melting point of 149 to 150 °C.
In turn, `N#Cc1ccc(CCC2CCC(=O)CC2)cc1` returned a melting point of 62.5 to 64.3 °C.
With `CC(C)(C)C(=O)c1cnn2c1NCCC2`, the melting point lay in the range of 169 to 170 °C.
Compound `COc1cc(-c2nc3ccc(OCCCl)cc3n2Cc2ccccc2)cc(OC)c1OC` returned a melting point of 129 °C.
The compound `Cn1ncc2[nH]c3ccc(Cc4cccc([N+](=O)[O-])c4)cc3c(=O)c21` showed a melting point of 279 to 283 °C.
For `O=C(C=Cc1ccc(OC(F)(F)F)cc1)N1CCc2c([nH]c3ccccc23)C1c1ccc2c(c1)OCO2` (stereo not drawn) the value was 203 to 205 °C; for `COc1ccc(N2CCOCC2)c2sc(-c3ncc(-c4sc5ccccc5c4C)[nH]3)nc12`, 213 to 215 °C; for `COC1=C(OC)C(=O)C2=C(CC(CCCCOc3ccc(C(=O)N4CCOCC4)cc3)C2)C1=O`, 128 to 131 °C.
The compound `O=C(c1ccc(F)cc1)N1CCC[C@H](c2nc(-c3ccccc3)no2)C1` yielded a melting point of 78 to 79 °C.

The values are drawn from a melting point compilation (Tetko et al.; mined from patent text by program, amines drawn as free bases though some values may be those of a salt).
